Experimental data reported in PubChem BioAssay AID179 (DTP/NCI, 2004).
Several values for one entry are separate records, joined by “and”; a condition that tells them apart may be missing. Equal entries are not always repeated. Activity calls are given as the source filed them.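 The calls were made as follows: active = compounds giving half or more protection of infected cells from virus-caused growth loss, again on retest; inactive = the rest.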

Tested on: CEM cells HIV-1 protection, formazan growth assay
Experiment: NCI AIDS Antiviral Assay
Details: for IC50: measured here: growth of uninfected CEM cells
Procedure, shortened: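 Steps: treat uninfected and HIV-1-infected human CEM cells at five drug levels; quantify growth by soluble formazan; retest any compound reaching 50% protection; classify actives from the retest.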

Compound | EC50 | IC50 | outcome
N#C/C(C(=O)Nc1ccc(Cl)cc1)=C(/N)N1CCCCC1 | > 200 µM | > 200 µM | –
CC1NC(C)SC(C)S1 (configuration not stated) | > 200 µM | > 200 µM | –
Cn1cc(NC(=O)Nc2cc(C(=O)Nc3cc(C(=O)Nc4ccc5cc(S(=O)(=O)O)cc(S(=O)(=O)O)c5c4)n(C)n3)n(C)c2)cc1C(=O)Nc1cc(C(=O)Nc2ccc3cc(S(=O)(=O)O)cc(S(=O)(=O)O)c3c2)n(C)n1 | 5.5 µM | > 100 µM | –
COc1cc2c(c(OC)c1OC)-c1ccc(OC)c(=O)cc1[C@@H](NC(=O)c1ccccc1)CC2 | > 0.2 µM | 0.00339 µM | –
COC(=O)[n+]1cc2c3cccc[n+]3c(N(C)C)n2c2ccccc21 | > 200 µM | 16.6 µM | –
O=c1cc(NNc2cccc(F)c2)[nH]c(=O)[nH]1 | > 200 µM | 1.1 µM | –
CCCCNc1nc(C#N)c(N)s1 | > 1260 µM | 204 µM | –
S=C1NC2=C(CSC/C2=C\c2ccccc2)C(c2ccccc2)N1 (configuration not stated) | > 200 µM | 37.2 µM | –
OCc1cc[te]c1 | – | – | inactive
C1=Nc2ccccc2N=Cc2ccccc2NCCNc2ccccc21 | > 200 µM | > 200 µM | –
CC(=O)C(N=Nc1ccc(S(=O)(=O)Nc2ccccn2)cc1)C(=O)Nc1ccccc1C (configuration not stated) | > 200 µM | 4.57 µM | –
COC(=O)/C=C1\C(=O)N(C(C)=O)c2ccccc21 | > 200 µM | 3.31 µM | –
O=C1/C(=C\c2cccc(Oc3ccccc3)c2)S(=O)(=O)C(c2ccccc2)N1c1cc(Cl)ccc1Cl (configuration not stated) | > 200 µM | 3.31 µM | –
Cc1cn([C@H]2C[C@@H]3[C@@H](COC(CCc4ccccc4)N3O)O2)c(=O)[nH]c1=O (some centres not stated) | 95.5 µM | 151 µM | –
CN(C)/C=C(\C(=O)c1ccccc1)n1nc(-c2ccccc2)cc1-c1ccccc1 | > 200 µM | 87.1 µM | –
Nc1nc(Nc2ccc(Cl)c(Cl)c2)c(N=O)c(=O)[nH]1 | > 200 µM | 3.72 µM | –
O=C(O)Cc1cc(=O)[nH]c2c1/C(=N/O)CCC2 | – | – | inactive
CCCCCCCCCCCCNC(=O)C(O)C(O)C(O)C(COS(=O)(=O)O)OS(=O)(=O)O (configuration not stated) | > 200 µM | 30.2 µM | –
Cc1ccc(S(=O)(=O)N/N=C(/CC(=O)c2c(C)n([O-])c3ccccc3[n+]2=O)C(=O)Nc2ccccc2C)cc1 | > 33.1 µM | > 33.1 µM | –
CN(C)CCCNC(=O)c1cc(NC(=O)c2cc(NC(=O)c3cc(NC(=O)c4ccnc(C(=O)Nc5cc(C(=O)Nc6cc(C(=O)Nc7cc(C(=O)NCCCN(C)C)n(C)c7)n(C)c6)n(C)c5)c4)cn3C)cn2C)cn1C | > 100 µM | > 100 µM | –
CCC(C)[C@H]1C(=O)N=C(N)N1C(=O)OCc1ccccc1 (some centres not stated) | 195 µM | > 200 µM | –

Compound | EC50 | IC50 | outcome
O=C(O)CSC1=NNC2(C(=O)N1)c1ccccc1-c1ccccc12 | > 200 µM | 58.9 µM | –
CCN(CC)CC(=O)N(CC)c1ccc(C)c(Cl)c1 | > 200 µM | > 200 µM | –
O=C(NNC(=O)c1csc(NC(=S)NC2CCCCC2)n1)c1ccccc1 | > 200 µM | 14.5 µM | –
c1ccc2c3nnc(c2c1)SCCSCCSc1nnc(c2ccccc12)SCCSCCS3 | > 200 µM | > 200 µM | –
Cc1noc(NS(=O)(=O)c2ccc(NC(=O)c3ccc4nc5ccccc5c(Nc5ccc(S(=O)(=O)Nc6onc(C)c6C)cc5)c4c3)cc2)c1C | 63.1 µM | 110 µM | –
CCSc1n/c(=C\c2ccco2)c2nncn12 | > 100 µM | > 100 µM | –
NC(N)=NCCCS(=O)(=O)Nc1ccc(Nc2c3ccccc3nc3cc([N+](=O)[O-])ccc23)cc1 | – | – | inactive
COc1cc(Br)c(C=Nc2cccc3ccc(OS(=O)(=O)c4ccc([N+](=O)[O-])cc4)cc23)cc1OC | > 17.4 µM | > 17.4 µM | –
COc1cc(C(=O)N(C)N(C)C)cc(OC)c1OC | > 200 µM | > 200 µM | –
Brc1ccc2nc(-c3ccccc3)c3ccccc3c2c1 | > 200 µM | > 200 µM | –
CC(C)CC[CH2][Pb]([CH2]CCC(C)C)([CH2]CCC(C)C)[O]C(=O)C(Cl)(Cl)Cl | > 200 µM | 3.09 µM | –
O=S(Cc1ccccc1)/C(=C/n1c(=S)[nH]c2ccccc21)c1ccccc1 (configuration not stated) | > 200 µM | > 200 µM | –
Clc1cccc(NC2=NCCN=C(Nc3cccc(Cl)c3)SS2)c1 | – | – | inactive
OCCN(CC(O)C(O)CN(CCO)C(=S)S)C(=S)S (configuration not stated) | > 58.9 µM | > 58.9 µM | –
CC(=O)[CH-]C(C)=O.[CH2-]C.[CH2-]C.[Tl+3] | > 501 µM | > 501 µM | –
CC(CCC(=O)O)[C@H]1CCC2[C@@H]3C(=O)C[C@@H]4CC(O)CC[C@]4(C)C3CC[C@@]21C (some centres not stated) | – | – | inactive
COc1ccc2c(c1)OC[C@@H]1c3cc(O)c4c(OCc5ccccc5)cccc4c3O[C@H]21 | > 100 µM | 67.6 µM | –
O=C1CCC2(c3ccccc3)Nc3cc([N+](=O)[O-])ccc3N12 (configuration not stated) | > 24.5 µM | > 24.5 µM | –
C=C1CN(S(=O)(=O)c2ccc(C)cc2)CCCN(CC(C)CC)CCCN(S(=O)(=O)c2ccc(C)cc2)C1 (configuration not stated) | > 58.9 µM | 2.57 µM | –
CCOC(=O)/C=C/c1ccccn1 | > 1410 µM | 646 µM | –
C1=CC=C(N=P(c2ccccc2)(c2ccccc2)c2ccccc2)CC=C1 | – | – | inactive

Compound | EC50 | IC50 | outcome
C1CCC2(CC1)SSC1(CCCCC1)S2 | > 200 µM | 110 µM | –
CCOc1ccccc1NC(=O)C(=O)CC(=O)C1=C(C)Nc2ccccc2S1 | > 117 µM | > 117 µM | –
CCc1c2c(c(C)n1C)C(c1ccccc1)=NCC(=O)N2 | > 468 µM | 295 µM | –
[N-]=[N+]=Nc1ccc(CNc2cc(=O)[nH]c(=O)[nH]2)cc1 | > 200 µM | > 200 µM | –
Nc1nn2cc3c(nc2c1N=Nc1ccccc1)CCC3 | > 200 µM | > 200 µM | –
c1ccc2[nH]c(-c3nc4ccccc4s3)nc2c1 | > 15.1 µM | 5.37 µM | –
COc1ccc(-c2c(C)oc3cc(OC(C)=O)ccc3c2=O)cc1 | > 200 µM | 30.9 µM | –
N#C[C@](CO)(NC(=O)OCc1ccccc1)C(F)F | > 200 µM | > 200 µM | –
COc1ccc(C(c2c(O)c3ccccc3n(-c3ccccc3)c2=O)c2c(O)c3ccccc3n(-c3ccccc3)c2=O)cc1 | > 8.71 µM | > 8.71 µM | –
CC[C@@H](C)[C@H](NC(=O)[C@H](CCCCN)NC(=O)[C@H](CCCCN)NC(=O)[C@H](CC(C)C)NC(=O)[C@@H]1CCCN1C(=O)[C@@H]1CCCN1C(=O)[C@@H](NC(=O)[C@H](CC(C)C)NC(=O)[C@H](CCCCN)NC(=O)[C@H](CCCN=C(N)N)NC(=O)[C@@H](N)C(C)C)[C@@H](C)O)C(=O)O | – | – | inactive
CC(=O)OC1COC(Nc2nc(NCc3ccccc3)n(C)c(=O)c2N=O)C(OC(C)=O)C1OC(C)=O (configuration not stated) | > 200 µM | > 200 µM | –
CCCC(=O)[O-].CCCC(=O)[O-].N.N.N.N.[Co+3].[O-][Cl+3]([O-])([O-])[O-] | – | – | inactive
OCC(O)C(Cl)CCl (configuration not stated) | > 200 µM | > 200 µM | –
CCC/C(=N\NC(=S)N1CC2CCC(CC2)C1)c1ccccn1 | > 6.76 µM | 0.148 µM | –
CN(C)CCC(=O)N1CCc2c([nH]c3ccccc23)C1c1cccnc1 (configuration not stated) | > 372 µM | > 372 µM | –
N#CC12CCC1C1CCCCC12N1CCSCC1 (configuration not stated) | – | – | inactive
CCCCOC(=O)C(=O)C(CC(C(=O)Cc1ccccc1)c1ccccc1)C(=O)C=C(C)C (configuration not stated) | > 112 µM | > 112 µM | –
Cc1cc(Cl)ccc1NC(=O)CC/C(CC(=O)C(C)C)=N\NC(=O)C[n+]1ccccc1 | > 16.2 µM | > 16.2 µM | –
Cc1nc(-c2cccnc2)sc1C(=O)CC(=O)C(=O)Nc1cccc(NC(=O)C(=O)CC(=O)c2sc(-c3cccnc3)nc2C)n1 | > 275 µM | 158 µM | –
CC1NC(=O)c2c(-c3ccccc3)nn(-c3ccccc3)c2NC1=O (configuration not stated) | > 200 µM | > 200 µM | –
O=c1c2ccccc2oc2nc3cc(Cl)ccc3n12 | > 200 µM | > 200 µM | –

Compound | EC50 | IC50 | outcome
Clc1ccccc1/C=C\C1(c2ccccc2)OCCO1 | > 200 µM | 10.5 µM | –
CCc1cccc(C)c1NC(=O)CC1Sc2ccccc2NC1=O (configuration not stated) | > 28.8 µM | 17.8 µM | –
C[P@](=O)(CCSc1ccccc1)c1ccccc1 | > 468 µM | > 468 µM | –
COC1OC(CO)C(O)C1N (configuration not stated) | – | – | inactive
CCCCC[C@@H]1CCCC2C1CC[C@@H](CCCCCI)N2C(=O)OCC(Cl)(Cl)Cl (some centres not stated) | – | – | inactive
CC1=NN(C(=O)CC(=O)Nc2ccc(C)cc2)C(=O)C1N=Nc1ccc(C(=O)O)cc1 (configuration not stated) | > 200 µM | 39.8 µM | –
O=C(O)Cc1ccc(SSc2ccc(CC(=O)O)cc2)cc1 | 46.8 µM and 129 µM | 1120 µM and > 200 µM | –
O=c1ccn([C@@H]2C[C@H](CO)[C@H](O)C2)c(=O)[nH]1 | > 1100 µM | > 1100 µM | –
Cn1nc2c(c(Cl)c1=O)Nc1ccccc1O2 | > 200 µM | > 200 µM | –
OCC1(CO)CCCC(CO)(CO)C1O | > 200 µM | > 200 µM | –
CCOC(=O)CC[C@H](NC(=O)N[C@H](C)c1ccccc1)C(=O)OCC | > 200 µM | 39.8 µM | –
CC1CCC(O)/C=C/C(=O)OC(C)C(O)/C=C/C(=O)O1 (configuration not stated) | > 200 µM | 10 µM | –
Cc1ccc(C)c(N2C(=O)C(=O)C(c3nc4ccccc4s3)/C(=N/N)C2=O)c1 (configuration not stated) | > 50.1 µM | > 50.1 µM | –
CSc1ncccc1C(=O)[O][Sn]([c]1ccccc1)([c]1ccccc1)[c]1ccccc1 | > 2 µM | 0.316 µM | –
Nc1nc2c(ncn2C(CCO)SCCO)c(=O)[nH]1 (configuration not stated) | > 871 µM | > 871 µM | –
CN1CCCC(CC2c3ccccc3Sc3ccccc32)C1 (configuration not stated) | > 200 µM | 12.3 µM | –
c1ccc2c(c1)SC1Sc3ccccc3[S+]21 (configuration not stated) | > 200 µM | 11.5 µM | –
S=c1sc(-c2ccc(Cl)cc2)nn1CSc1nc2ccccc2o1 | > 200 µM | > 200 µM | –
CC(=O)NCCC1CN(C(=O)/C=C\I)c2ccccc21 (configuration not stated) | > 200 µM | 9.33 µM | –
CCCCCCCCCCCCCCCC(=O)Nc1ccn(C2CCC(COP(=O)(O)OCC3OC(n4ccc(NC(=O)CCCCCCCCCCCCCCC)nc4=O)CC3OP(=O)(O)OCC3OC(n4cc(C)c(=O)[nH]c4=O)CC3N=[N+]=[N-])O2)c(=O)n1 (configuration not stated) | 0.0282 µM | 15.1 µM | –
CCC1(O)N=C(c2ccccc2)c2ccccc2-n2cccc21 (configuration not stated) | > 200 µM | 166 µM | –
